From US20240091366A1, “NOVEL ACID-SENSITIVE APTAMER TRIPTOLIDE CONJUGATE AND APPLICATIONS” (priority 2022, published 2024)
Several values for one entry are separate records, joined by “and”; a condition that tells them apart may be missing. Equal entries are not always repeated.

Experiments:
Experiment in all cases: MTT assay, cell proliferation inhibition
Format in all cases: cell-based
Conditions in all cases: 48 h
[1] = tested on: pancreatic cancer cell line PANC-1
From the text: (§1) Material: aptamer triptolide conjugate (AS1411-TP). Triptolide (TP) was provided by Shanghai Yaji Biotechnology Co. Ltd; aptamer (AS1411) was obtained from Chengdu Pilot Drug Development Co. Ltd; trypsin, thiazolyl blue (MTT) (Biofroxx, Germany); dimethyl sulfoxide (DMSO) (MP Biomedicals, France); fetal bovine serum (FBS) (Newzerum, New Zealand); DMEM medium, RPMI1640 medium, Petri dishes, 96-well plates (Corning, USA); colon cancer cells HCT116, breast cancer cells MDA-MB-231, non-small-cell lung cancer cells A549, pancreatic cancer cells PANC-1, and hepatocellular carcinoma cells HepG2 were purchased from the Shanghai Cell Bank of the Chinese Academy of Sciences and preserved in the laboratory.
(§2) Take the tumor cells HCT116, MDA-MB-231, A549, PANC-1 and HepG2 cell lines from the liquid nitrogen tank, place them in a 37° C. water bath, wait for the frozen cells to melt into cell suspension, centrifuge the cells at 1000 r/min for 3 min, discard the supernatant, add 1 ml of fresh complete medium containing 10% fetal bovine serum and 1% double antibody to mix the cells, then add 5 ml of medium, gently and repeatedly blowing the cells with a pipette gun to make them mix well. Then add 5 ml of medium, blow the cells gently and repeatedly with a pipette gun to mix them well, and finally transfer the cell suspension to a […] and label the cell name, cell number, date of resuscitation and the operator's name, and place it in a cell culture incubator for cultivation. (HCT116, PANC-1 and HepG2 cell lines were cultured in DMEM medium, while MDA-MB-231 cell line and A549 cell line were cultured in RPMI1640 medium).
(§3) Take HCT116, MDA-MB-231, A549, PANC-1, HepG2 cells with good growth status, remove the medium, add 1 ml of sterile PBS to wash, add 1.5 ml of trypsin to digest the cells, about 2 min later the cells become round and fall off, add 1.5 ml of medium to terminate the digestion, transfer it to centrifugal tube, centrifuge at 1000 r/min for 3 min, discard the supernatant, add 1 ml of fresh medium to resuspend, then add fresh medium for 1:3 distribution to other culture dishes, and label the date of transmission and the number of generations. Place in the cell culture incubator for cultivation.
(§4) Take HCT116, MDA-MB-231, A549, PANC-1, HepG2 cells with good growth status, by the same operation as the cell passaging experiment, after cell resuspension, cell counting with hemocyte counting plate, with 2500 cells/well, plant in 96-well plate, after 24 h of cell culture, remove the original medium, add medium containing different concentrations of drugs and continue to cultivate for 48 hours. After 24 h of cell culture, the original medium was removed and the medium containing different concentrations of drugs was added to continue the culture for 48 hours. […] The above steps were repeated three times.

[2] = tested on: colon cancer cell line HCT116
From the text: as §1, §2, §3, §4

[3] = tested on: breast cancer cell line MDA-MB-231
From the text: as §1, §2, §3, §4

[4] = tested on: hepatocellular carcinoma cell line HepG2
From the text: as §1, §2, §3, §4

[5] = tested on: lung adenocarcinoma cell line A549
From the text: as §1, §2, §3, §4

CC(C)[C@]12O[C@H]1[C@@H]1O[C@]13[C@]1(O[C@H]1C[C@H]1C4=C(CC[C@@]13C)C(=O)OC4)[C@@H]2O [TP, Triptolide]
inhibition at 0.0031 µM ([1]; Homo sapiens, PANC-1, 48 h, PANC-1, 3.1 nM, samples 1-3, read-out: cell proliferation inhibition rate): 31.2%
inhibition at 0.0063 µM ([1]; Homo sapiens, PANC-1, 48 h, PANC-1, 6.3 nM, samples 1-3, read-out: cell proliferation inhibition rate): 36%
inhibition at 0.0125 µM ([1]; Homo sapiens, PANC-1, 48 h, PANC-1, 12.5 nM, samples 1-3, read-out: cell proliferation inhibition rate): 49.2%
inhibition at 0.025 µM ([1]; Homo sapiens, PANC-1, 48 h, PANC-1, 25.0 nM, samples 1-3, read-out: cell proliferation inhibition rate): 59%
inhibition at 0.05 µM ([1]; Homo sapiens, PANC-1, 48 h, PANC-1, 50.0 nM, samples 1-3, read-out: cell proliferation inhibition rate): 64.8%
inhibition at 0.1 µM ([1]; Homo sapiens, PANC-1, 48 h, PANC-1, 100.0 nM, samples 1-3, read-out: cell proliferation inhibition rate): 80.3%
inhibition at 0.2 µM ([1]; Homo sapiens, PANC-1, 48 h, PANC-1, 200.0 nM, samples 1-3, read-out: cell proliferation inhibition rate): 93%
IC50 ([1]; Homo sapiens, pancreatic cancer cells PANC-1, MTT): 14.4 ± 0.09 nM
cell proliferation inhibition rate ([1]; PANC-1, 3.1 nM, samples 1-3, 0.0031 µM): 30.2815 and 32.0448
cell proliferation inhibition rate ([1]; PANC-1, 6.3 nM, samples 1-3, 0.0063 µM): 37.1753 and 34.7338
cell proliferation inhibition rate ([1]; PANC-1, 12.5 nM, samples 1-3, 0.0125 µM): 47.8196 and 50.5663
cell proliferation inhibition rate ([1]; PANC-1, 25.0 nM, samples 1-3, 0.025 µM): 58.7555 and 59.2302
cell proliferation inhibition rate ([1]; PANC-1, 50.0 nM, samples 1-3, 0.05 µM): 65.1441 and 74.5337
cell proliferation inhibition rate ([1]; PANC-1, 100.0 nM, samples 1-3, 0.1 µM): 81.0105 and 79.6202
cell proliferation inhibition rate ([1]; PANC-1, 200.0 nM, samples 1-3, 0.2 µM): 98.8589 and 97.2313
cell proliferation inhibition rate ([2]; HCT116, 6.3 nM, samples 1-3, 0.0063 µM): 20.0440 and 13.1188
cell proliferation inhibition rate ([2]; HCT116, 12.5 nM, samples 1-3, 0.0125 µM): 43.4099 and 47.0957
cell proliferation inhibition rate ([2]; HCT116, 25.0 nM, samples 1-3, 0.025 µM): 66.2973 and 50.7426
cell proliferation inhibition rate ([2]; HCT116, 50.0 nM, samples 1-3, 0.05 µM): 79.2127 and 76.2156
cell proliferation inhibition rate ([2]; HCT116, 100.0 nM, samples 1-3, 0.1 µM): 80.3075 and 88.8251
cell proliferation inhibition rate ([2]; HCT116, 200.0 nM, samples 1-3, 0.2 µM): 98.8058 and 98.5677
inhibition at 0.0063 µM ([2]; Homo sapiens, HCT-116, 48 h, HCT116, 6.3 nM, samples 1-3, read-out: cell proliferation inhibition rate): 24.7%
inhibition at 0.0125 µM ([2]; Homo sapiens, HCT-116, 48 h, HCT116, 12.5 nM, samples 1-3, read-out: cell proliferation inhibition rate): 42.1%
inhibition at 0.025 µM ([2]; Homo sapiens, HCT-116, 48 h, HCT116, 25.0 nM, samples 1-3, read-out: cell proliferation inhibition rate): 54.9%
inhibition at 0.05 µM ([2]; Homo sapiens, HCT-116, 48 h, HCT116, 50.0 nM, samples 1-3, read-out: cell proliferation inhibition rate): 75.6%
inhibition at 0.1 µM ([2]; Homo sapiens, HCT-116, 48 h, HCT116, 100.0 nM, samples 1-3, read-out: cell proliferation inhibition rate): 83%
inhibition at 0.2 µM ([2]; Homo sapiens, HCT-116, 48 h, HCT116, 200.0 nM, samples 1-3, read-out: cell proliferation inhibition rate): 97.2%
IC50 ([2]; Homo sapiens, HCT-116, colon cancer cells HCT116, MTT): 18.88 ± 0.13 nM
inhibition at 0.0031 µM ([3]; Homo sapiens, MDA-MB-231, 48 h, MDA-MB-231, 3.1 nM, samples 1-3, read-out: cell proliferation inhibition rate): 14.6%
inhibition at 0.0063 µM ([3]; Homo sapiens, MDA-MB-231, 48 h, MDA-MB-231, 6.3 nM, samples 1-3, read-out: cell proliferation inhibition rate): 25.7%
inhibition at 0.0125 µM ([3]; Homo sapiens, MDA-MB-231, 48 h, MDA-MB-231, 12.5 nM, samples 1-3, read-out: cell proliferation inhibition rate): 31.7%
inhibition at 0.025 µM ([3]; Homo sapiens, MDA-MB-231, 48 h, MDA-MB-231, 25.0 nM, samples 1-3, read-out: cell proliferation inhibition rate): 42.1%
inhibition at 0.05 µM ([3]; Homo sapiens, MDA-MB-231, 48 h, MDA-MB-231, 50.0 nM, samples 1-3, read-out: cell proliferation inhibition rate): 71.5%
inhibition at 0.1 µM ([3]; Homo sapiens, MDA-MB-231, 48 h, MDA-MB-231, 100.0 nM, samples 1-3, read-out: cell proliferation inhibition rate): 83%
inhibition at 0.2 µM ([3]; Homo sapiens, MDA-MB-231, 48 h, MDA-MB-231, 200.0 nM, samples 1-3, read-out: cell proliferation inhibition rate): 98.1%
IC50 ([3]; Homo sapiens, breast cancer cells MDA-MB-231, MTT): 22.4 ± 0.24 nM
cell proliferation inhibition rate ([3]; MDA-MB-231, 3.1 nM, samples 1-3, 0.0031 µM): 11.4171 and 14.3285
cell proliferation inhibition rate ([3]; MDA-MB-231, 6.3 nM, samples 1-3, 0.0063 µM): 23.5657 and 26.9811
cell proliferation inhibition rate ([3]; MDA-MB-231, 12.5 nM, samples 1-3, 0.0125 µM): 36.7429 and 35.2571
cell proliferation inhibition rate ([3]; MDA-MB-231, 25.0 nM, samples 1-3, 0.025 µM): 49.4400 and 45.9563
cell proliferation inhibition rate ([3]; MDA-MB-231, 50.0 nM, samples 1-3, 0.05 µM): 73.2000 and 76.9811
cell proliferation inhibition rate ([3]; MDA-MB-231, 100.0 nM, samples 1-3, 0.1 µM): 86.0800 and 88.6718
cell proliferation inhibition rate ([3]; MDA-MB-231, 200.0 nM, samples 1-3, 0.2 µM): 94.2971 and 93.2186
cell proliferation inhibition rate ([4]; HepG2, 3.1 nM, samples 1-3, 0.0031 µM): 28.7555 and 29.2302
cell proliferation inhibition rate ([4]; HepG2, 6.3 nM, samples 1-3, 0.0063 µM): 39.8542 and 49.5151
cell proliferation inhibition rate ([4]; HepG2, 12.5 nM, samples 1-3, 0.0125 µM): 51.8210 and 55.5307
cell proliferation inhibition rate ([4]; HepG2, 25.0 nM, samples 1-3, 0.025 µM): 66.7752 and 69.1489
cell proliferation inhibition rate ([4]; HepG2, 50.0 nM, samples 1-3, 0.05 µM): 79.9729 and 77.1075
cell proliferation inhibition rate ([4]; HepG2, 100.0 nM, samples 1-3, 0.1 µM): 88.3181 and 85.8901
cell proliferation inhibition rate ([4]; HepG2, 200.0 nM, samples 1-3, 0.2 µM): 99.2815 and 99.0448
inhibition at 0.0031 µM ([4]; Homo sapiens, HepG2, 48 h, HepG2, 3.1 nM, samples 1-3, read-out: cell proliferation inhibition rate): 29%
inhibition at 0.0063 µM ([4]; Homo sapiens, HepG2, 48 h, HepG2, 6.3 nM, samples 1-3, read-out: cell proliferation inhibition rate): 39.7%
inhibition at 0.0125 µM ([4]; Homo sapiens, HepG2, 48 h, HepG2, 12.5 nM, samples 1-3, read-out: cell proliferation inhibition rate): 48.7%
inhibition at 0.025 µM ([4]; Homo sapiens, HepG2, 48 h, HepG2, 25.0 nM, samples 1-3, read-out: cell proliferation inhibition rate): 68%
inhibition at 0.05 µM ([4]; Homo sapiens, HepG2, 48 h, HepG2, 50.0 nM, samples 1-3, read-out: cell proliferation inhibition rate): 78.5%
inhibition at 0.1 µM ([4]; Homo sapiens, HepG2, 48 h, HepG2, 100.0 nM, samples 1-3, read-out: cell proliferation inhibition rate): 88.2%
inhibition at 0.2 µM ([4]; Homo sapiens, HepG2, 48 h, HepG2, 200.0 nM, samples 1-3, read-out: cell proliferation inhibition rate): 95.2%
IC50 ([4]; Homo sapiens, hepatocellular carcinoma cells HepG2, MTT): 10.5 ± 0.33 nM
cell proliferation inhibition rate ([5]; A549, 6.3 nM, samples 1-3, 0.0063 µM): 16.7429 and 15.2571
cell proliferation inhibition rate ([5]; A549, 12.5 nM, samples 1-3, 0.0125 µM): 29.4400 and 25.9563
cell proliferation inhibition rate ([5]; A549, 25.0 nM, samples 1-3, 0.025 µM): 43.2000 and 46.9811
cell proliferation inhibition rate ([5]; A549, 50.0 nM, samples 1-3, 0.05 µM): 66.0800 and 68.6718
cell proliferation inhibition rate ([5]; A549, 100.0 nM, samples 1-3, 0.1 µM): 84.2971 and 83.2186
cell proliferation inhibition rate ([5]; A549, 200.0 nM, samples 1-3, 0.2 µM): 97.0057 and 96.3263
inhibition at 0.0063 µM ([5]; Homo sapiens, A549, 48 h, A549, 6.3 nM, samples 1-3, read-out: cell proliferation inhibition rate): 13.7%
inhibition at 0.0125 µM ([5]; Homo sapiens, A549, 48 h, A549, 12.5 nM, samples 1-3, read-out: cell proliferation inhibition rate): 22.1%
inhibition at 0.025 µM ([5]; Homo sapiens, A549, 48 h, A549, 25.0 nM, samples 1-3, read-out: cell proliferation inhibition rate): 41.5%
inhibition at 0.05 µM ([5]; Homo sapiens, A549, 48 h, A549, 50.0 nM, samples 1-3, read-out: cell proliferation inhibition rate): 63%
inhibition at 0.1 µM ([5]; Homo sapiens, A549, 48 h, A549, 100.0 nM, samples 1-3, read-out: cell proliferation inhibition rate): 80.1%
inhibition at 0.2 µM ([5]; Homo sapiens, A549, 48 h, A549, 200.0 nM, samples 1-3, read-out: cell proliferation inhibition rate): 99.2%
IC50 ([5]; Homo sapiens, lung adenocarcinoma cells A549, MTT): 30.23 ± 0.17 nM
